In PMC3288891 (2012):

Assays:
[1] = target: T1, P180C/E186C PTP1B (protein tyrosine phosphatase 1B) (Homo sapiens, UniProt P18031, E186C/P180C); experiment: pNPP phosphatase assay with purified enzyme; format: biochemical
T1 sequence (P18031 1-435 P180C/E186C): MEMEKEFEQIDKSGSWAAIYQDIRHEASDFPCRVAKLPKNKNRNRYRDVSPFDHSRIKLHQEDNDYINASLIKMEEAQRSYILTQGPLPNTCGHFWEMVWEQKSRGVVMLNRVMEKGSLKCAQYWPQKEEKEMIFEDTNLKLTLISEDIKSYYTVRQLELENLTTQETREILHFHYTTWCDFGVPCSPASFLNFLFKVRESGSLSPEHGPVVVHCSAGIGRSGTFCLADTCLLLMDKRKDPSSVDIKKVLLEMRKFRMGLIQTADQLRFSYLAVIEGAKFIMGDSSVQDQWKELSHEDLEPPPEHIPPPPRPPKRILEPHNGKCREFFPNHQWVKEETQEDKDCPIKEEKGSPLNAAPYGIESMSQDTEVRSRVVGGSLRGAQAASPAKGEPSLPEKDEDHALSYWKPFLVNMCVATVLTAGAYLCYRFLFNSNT

[2] = target: P180C/P185C PTP1B (protein tyrosine phosphatase 1B) (Homo sapiens, UniProt P18031, P180C/P185C); experiment: biochemical
[3] = target: wild-type PTP1B (protein tyrosine phosphatase 1B) (Homo sapiens, UniProt P18031); experiment: biochemical
[4] = target: T1, P180C/E186C PTP1B (protein tyrosine phosphatase 1B); experiment: biochemical

wild-type PTP1B (protein tyrosine phosphatase 1B), sequence (P18031 1-321 limits assumed): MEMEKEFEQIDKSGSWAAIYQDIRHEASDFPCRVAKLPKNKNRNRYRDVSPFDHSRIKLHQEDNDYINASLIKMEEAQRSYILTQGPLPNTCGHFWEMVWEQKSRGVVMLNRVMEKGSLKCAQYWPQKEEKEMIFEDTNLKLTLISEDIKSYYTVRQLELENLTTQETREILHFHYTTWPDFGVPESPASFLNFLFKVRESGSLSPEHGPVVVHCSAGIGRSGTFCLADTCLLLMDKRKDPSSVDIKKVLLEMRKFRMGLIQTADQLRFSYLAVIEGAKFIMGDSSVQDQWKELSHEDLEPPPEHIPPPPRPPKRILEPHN
P180C/P185C PTP1B (protein tyrosine phosphatase 1B), sequence (P18031 1-321 P180C/P185C limits assumed): as the sequence (P18031 1-321 limits assumed) above, with P180C, P185C counted along it

| Km [2] [µM] | Km [3] [µM] | Km [4] [µM] | SMILES | IC50 [1] [nM] |
| --- | --- | --- | --- | --- |
|  |  |  | O=C1OC2(c3ccccc31)c1ccc(O)c([As]3SCCS3)c1Oc1c2ccc(O)c1[As]1SCCS1 [FlAsH-EDT2, 4′,5′-bis(1,3,2-dithioarsolan-2-yl)fluorescein] | ~130 |
| 2030 ± 250 | 2290 ± 210 | 980 ± 90 | O=[N+]([O-])c1ccc(OP(=O)(O)O)cc1 [para-nitrophenyl phosphate] |  |
